Reference: paper PMC10761119, “Phosphorylation-state dependent intraneuronal sorting of Aβ differentially impairs autophagy and the endo-lysosomal system” (Autophagy, 2023)

How the values were obtained:
primary cortical neurons = test: Subcellular fractionation by differential centrifugation and Aβ ELISA; format: cell-based, mouse; conditions: Aβ 500 nM, 4 h; for Aβ levels in the isolated membrane fraction (16,100 g pellet): ELISA 82E1, n = 6, N = 3
Protocol: [Worded in the source for another cell line; used here, by the source, with some conditions changed.] (§1) SH-SY5Y cells seeded on D1, were treated with Aβ variants (1 μM) on D3 in DMEM/F-12 media without serum and antibiotics. Control treatment included treatment with equal volume of 10 mM NaOH solution used for preparing the Aβ stock solutions, in respective cell culture medium. SH-SY5Y cells, after 16 h of transient expression of the reporter constructs, were treated with different Aβ variants, autophagy modulator substrates and respective controls in DMEM/F-12, FCS^− PS^− media for the mentioned time points. After treatment, cells were washed twice with PBS and with 0.025% trypsin-EDTA in PBS to get rid of cell bound Aβ, followed by subsequent washings with PBS again. Cells were either collected by scraping using a cell-scraper or fixed with 4% PFA-PBS for 15 min at RT, for further immunocytochemistry experiments. Collected treatment media was centrifuged at 1000 g for 5 min, pellet discarded and supernatant frozen at −20°C until further usage.
Cells were collected by scraping and mechanically homogenized in hypotonic D buffer (10 mM Tris-HCl, pH 7.4, 10 mM NaCl, 0.1 mM EGTA, 25 mM glycerol 2-phosphate, 1 mM DTT) containing protease and phosphatase inhibitors by repeated suspension through a 23 G × 1” needle. Post-nuclear supernatant (PNS) was collected by centrifugation of the mechanically homogenized cellular material at 2,000 g for 5 min. The pellet was the nuclear material. […] The nuclear fraction was the supernatant collected after centrifugation at 16,100 g for 15 min. The PNS collected from the first step was centrifuged at 16,100 g for 60 min, and supernatant was used as the crude cytosolic fraction. The pellet contained the membrane materials, which were re-homogenized in hypotonic D buffer and again centrifuged at 16,100 g for 60 min. The supernatant was discarded, pellet was resuspended in STEN-lysis buffer (20 mM Tris-HCl, pH 7.5, 150 mM NaCl, 1 mM EDTA, 1 mM EGTA, 1% Triton X-100, 2.5 mM sodium pyrophosphate [Sigma Aldrich, P1835], 1 mM β-glycerophosphate [Sigma Aldrich, G9422]) containing protease and phosphatase inhibitors, and the membrane fraction was the supernatant collected after centrifugation at 16,100 g for 15 min. The crude cytosolic fraction was then further fractionated at 100,000 g for 70 min at 4°C under vacuum. The resultant supernatant was the soluble cytosolic fraction. The pellet was resuspended in STEN lysis buffer and centrifuged at 16,100 g for 15 min. The resultant supernanant represented the insoluble cytosolic fraction.
Wells were further tapped dry and incubated with 4G8-biotin/82E1-biotin detection antibodies (0.05–0.1 μg/well) at RT for 2 h followed by subsequent washing and incubation with streptavidin conjugated HRP complex (1:5000) for another 2 h. Wells were then washed thoroughly four times and filled with 100 µl of 3,3,5,5-tetramethylbenzidine substrate (TMB; ThermoFisher Scientific, N301) in each well and incubated at 25°C until sufficient blue color developed (time ranged from 2–15 min depending on the different capture antibodies used in the experiment). 100 µl of stop solution (4 M H2SO4) was added to each well. Absorbance values from each well were read at a Tecan plate reader at a wavelength of 450 nm and background measurement at 620 nm. Multiple readings were recorded for a single well and averaged. In each experiment, each sample was analyzed in technical duplicate/triplicate wells as indicated and average values from an independent experiment are presented (Figures 1E, 3G, SA-D and Table S2).

SH-SY5Y cells = test: Quantitative western immunoblotting of autophagy and endo-lysosomal proteins; format: cell-based, human; conditions: Aβ 1 µM, 24 h, n = 6, N = 3
Protocol: as §1
Cells were collected by scraping and mechanically homogenized in hypotonic D buffer (10 mM Tris-HCl, pH 7.4, 10 mM NaCl, 0.1 mM EGTA, 25 mM glycerol 2-phosphate, 1 mM DTT) containing protease and phosphatase inhibitors by repeated suspension through a 23 G × 1” needle. Post-nuclear supernatant (PNS) was collected by centrifugation of the mechanically homogenized cellular material at 2,000 g for 5 min. The pellet was the nuclear material. Nuclear pellet was then resuspended in Buffer C (5 mM HEPES, 1.5 mM MgCl2, 0.2 mM EDTA, 0.5 mM DTT, 0.05% NP40 [Sigma Aldrich, 18876], 30% glycerol, pH 7.9) containing protease and phosphatase inhibitors, ultrasonicated at minimum voltage, three currents in four cycles, followed by repetitive cooling of samples on ice. The nuclear fraction was the supernatant collected after centrifugation at 16,100 g for 15 min. The PNS collected from the first step was centrifuged at 16,100 g for 60 min, and supernatant was used as the crude cytosolic fraction. The pellet contained the membrane materials, which were re-homogenized in hypotonic D buffer and again centrifuged at 16,100 g for 60 min. The supernatant was discarded, pellet was resuspended in STEN-lysis buffer (20 mM Tris-HCl, pH 7.5, 150 mM NaCl, 1 mM EDTA, 1 mM EGTA, 1% Triton X-100, 2.5 mM sodium pyrophosphate [Sigma Aldrich, P1835], 1 mM β-glycerophosphate [Sigma Aldrich, G9422]) containing protease and phosphatase inhibitors, and the membrane fraction was the supernatant collected after centrifugation at 16,100 g for 15 min. The crude cytosolic fraction was then further fractionated at 100,000 g for 70 min at 4°C under vacuum. The resultant supernatant was the soluble cytosolic fraction. The pellet was resuspended in STEN lysis buffer and centrifuged at 16,100 g for 15 min. The resultant supernanant represented the insoluble cytosolic fraction.
For different cellular fractions prepared as described earlier, the protein content was estimated using the standard Pierce™ BCA protein assay kit (ThermoFisher Scientific, 23225). For direct comparison between the samples, equal amount of protein was loaded. Samples were dissolved in Laemmli buffer and were boiled at 95°C for 5 min. They were loaded on a precast 4–12% NuPage® Bis-Tris gels (Life technologies, NP033–5/6, WG140–2/3). Gels and prestained protein molecular weight markers were purchased from Life technologies. The separated proteins were electro-transferred onto a 0.2-μm nitrocellulose (NT) membrane (Amersham, 1060001) for 1 h 45 min. After blotting, the NT membranes were boiled in PBS for 10 min. Ponceau staining was done to monitor protein loading of samples. The blots were then incubated in 5% skim milk in TBS-T (TBS [50 mM Tris-HCl, pH 7.5, 150 mM NaCl] containing 0.1% Tween 20 [Sigma Aldrich, P1379]) for 1 h at RT. Blots were incubated overnight at 4°C in the primary antibody solution (respective dilutions in TBS-T, Table 1). Blots were washed and incubated with appropriate secondary antibodies conjugated either with HRP or fluorescent dyes for 1 h. […]

Substance | Aβ levels in the isolated membrane fraction (16,100 g pellet) (primary cortical neurons) | Aβ levels in the total cytosolic fraction (supernatant after 16,100 g spin) (primary cortical neurons; ELISA, followed by p-Ser8Aβ and npAβ) | Intracellular levels of the ATP6V0A1 subunit of the V-ATPase (SH-SY5Y cells; PNS fraction) | Levels of nuclear transcription factor EB (TFEB) (SH-SY5Y cells; nuclear material) | ATG1-ULK1 kinase complex level (SH-SY5Y cells; western immunoblot vs control) | CTSD level (SH-SY5Y cells; western immunoblot vs control) | EEA1 level (SH-SY5Y cells; western immunoblot vs control) | LAMP2 level (SH-SY5Y cells; western immunoblot vs control) | RAB5 level (SH-SY5Y cells; western immunoblot vs control) | RAB7 level (SH-SY5Y cells; western immunoblot vs control) | RAB11 level (SH-SY5Y cells; western immunoblot vs control) | ATG3 level (SH-SY5Y cells; western immunoblot vs control) | Aβ levels in the 100,000 g pellet (insoluble cytosolic fraction) (primary cortical neurons; ELISA, compared to npAβ and p-Ser26Aβ) | Aβ levels in the 100,000 g supernatant (soluble cytosolic fraction) (primary cortical neurons; ELISA, compared to p-Ser26Aβ) | Levels of LC3-I and II (SH-SY5Y cells; western immunoblot, compared to control cells)
amyloid-β phosphorylated at serine residue 26 [p-Ser26Aβ] | significantly lower | highest levels | significantly increased levels | significantly increased levels | increased | selectively increased | no significant effect | selectively increased | increased | strongest effects | strongest effects |  |  |  | 
non-phosphorylated amyloid-β [npAβ, reference compound] | significantly lower |  |  |  | increased |  | no significant |  | no significant | no significant | smallest effect | not |  |  | 
amyloid-β phosphorylated at serine residue 8 [p-Ser8Aβ] | highest levels |  |  |  | not |  | increased |  | increased |  |  |  | significantly higher | significantly lower | significantly increased levels
